The values below come from patent publication US20050107289A1, “Anti-microbial peptides and compositions” (priority 2001, published 2005).

Non-standard residues stand in square brackets, D forms with d. Residues, ends and D or L forms follow the SMILES beside them.

In series [1] the test system is vancomycin resistant E. faecium (VREF)(ATCC 51575). Put plainly: Mouse peritonitis model, VREF protection. The class given is in vivo, mice. The arrangement: PD50 VREF: unit not given here. The note with it: for PD50 VREF: Table 12, male Balb-C mice, IP infection, IP peptide; for In Vivo VREF PD50: Table 13; for protection of mice from VREF infection: single bolus IP dose of appropriate amount, 45-60 min after infection. As to the method: Vancomycin resistant Enterococcus faecium (VREF) bacteria (ATCC 51575) were grown at 37° C. in 60 mL of Brain Heart Infusion medium (BHI, Difco Laboratories) with agitation for 16 hours to a stationary phase. Cells were collected by centrifugation, washed twice with saline solution and resuspended in 6 mL of saline to a theoretical O.D.650 of 9-10 (determined by taking OD.650 of 10-20 fold diluted samples and correlating it to the original concentration). This suspension was diluted 15 times in a sterilized 5% mucin (Difco) in saline to a concentration of 5-7×10^8 cfu/ml (actual inoculum size was verified by colony counts on agar plates).
Peptides of the invention were tested in mice to ascertain whether they would protect the mice against bacterial infection using procedures similar to those described in N. Frimodt-Moller et al., The Mouse Peritonitis/Sepsis Model, in Zak et al. (eds.) HANDBOOK OF ANIMAL MODELS OF INFECTION 127-37 (Academic Press 1999).
Male Balb-C mice (6 weeks old, approximately 20 g) were used in the study. Staphylococcus aureus MRSA bacteria (ATCC 33591) were grown at 37° C. with agitation for 12 hours to a stationary phase. Cells were collected by centrifugation, washed twice with saline and resuspended to an O.D.650 of 1.4. This suspension was diluted ten times with saline and resuspended to a concentration of 3-5×10^7 cfu/ml. For each peptide five groups of eight mice per group were infected I.P. with 0.5 ml of the above Staphylococcus aureus MRSA preparation (lethal dose). Forty-five minutes to an hour after infection, each group was treated with a different dose of peptide and a control group received vehicle only. Mice were monitored for fourteen days; death was defined as the end point. Median protecting doses (PD50) were calculated following the Reed and Muench method. […] For IV and SQ models peptide was administered immediately after IP infection.

For series [2], the system named is S. aureus (MRSA) (ATCC No. 33592). As to the kind of experiment: Time-killing curve, S. aureus MRSA ATCC 33592. In kind it is cell-based, Staphylococcus aureus. The note with it: about 4 μg/ml. As to the method:
(§1) The speed at which several of the cyclic peptides of the invention kill E. coli JM 109 (DE3), Enterococcus faecium SP 180 and S. aureus (MRSA) (ATCC No. 33591 and 33592) was further tested at room temperature and/or at 37° C. A lower temperature tends to enrich the bacterial cultures for mature bacteria because the bacteria are not growing quickly. […] The presence or absence of immature bacteria in the culture may influence the rate at which the bacteria are killed, because immature bacteria tend to be more susceptible to many forms of antibiotics.
FIGS. 9 and 10 illustrate the time course for killing S. aureus (MRSA) (ATCC No. 33592) with varying concentrations of cyclo[KSKWLWLW] cyclic peptide (SEQ ID NO:12) at room temperature and at 37° C. […] This may be due to growth of a few survivors after the residual cyclic peptide within the culture has been exhausted because the amount of peptide employed in that assay was below the MIC value.

Series [3] relates to Streptococcus pneumoniae (ATCC 6301). In kind it is cell-based. The gist of the method:
(§2)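 Peptide activity was measured by NCCLS M7-A4 broth dilution, mostly as microdilution with some macrodilution. Serial 2-fold dilutions, approximately 400-2 μg/ml stock range, were made in 5% DMSO/9% aq. sucrose. Overnight cultures were diluted 4000-fold to about 2.5×10^5 cfu/ml inoculum.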

Series [4] relates to Bacillus cereus ATCC 11778. In kind it is cell-based. In short, it runs like this: as §2
For series [5], the system named is E. faecium SP180. As to the kind of experiment: Time-killing curve, E. faecium SP180. The note with it: for time to kill effectively all bacteria / killing of bacteria: about 2 μg/ml, BHI broth. The class given is cell-based, Enterococcus faecium. As to the method:
as §1
FIGS. 11 and 12 illustrate the time course for killing E. faecium SP 180 with varying concentrations of KSKWLWLW (SEQ ID NO:12), at room temperature and at 37° C. Assays were performed in Brain Heart Infusion broth. As illustrated, somewhat shorter times and/or somewhat lower concentrations of this cyclic peptide are required to kill E. faecium SP180 at 37° C. than at room temperature. E. faecium SP180 is vancomycin resistant (vanA) and multiply resistant to several FDA approved antibiotics. […] This may be due to growth of a few survivors after the residual cyclic peptide within the culture has been exhausted because the amount of peptide employed in that assay was below the MIC value.

The conditions of series [6]: trypsin, α-chymotrypsin, subtilisin, blood plasma; RP-HPLC over 24 h. As for the experimental part: Cyclic peptides having SEQ ID NO:13, 18, 26, and 29 were assayed for proteolytic susceptibility.

As to `CC(C)C[C@H]1NC(=O)[C@H](Cc2c[nH]c3ccccc23)NC(=O)[C@@H](CCCCN)NC(=O)[C@H](CO)NC(=O)[C@@H](CCCCN)NC(=O)[C@H](Cc2c[nH]c3ccccc23)NC(=O)[C@@H](CC(C)C)NC(=O)[C@H](Cc2c[nH]c3ccccc23)NC1=O` [SEQ ID NO:12, D-Lys-Ser-D-Lys-Trp-D-Leu-Trp-D-Leu-Trp] (cyclo([dK]S[dK]W[dL]W[dL]W)), in series [1], the “PD50 E. faecium VREF infection” value is listed as 5 mg/kg, the “PD50 VREF” value amounted to 5, the “In Vivo VREF PD50” value is 5 mg/kg and the “protection of mice from VREF infection” value is reported as “completely protect”. In series [2] (37° C.), the “rebound of bacterial population” value was “rebounds by about six hours” and the “time to kill effectively all bacteria” value is given as “within about one hour”. Further, in series [2] (room temperature), the “rebound of bacterial population” value was “no rebound is observed” and the “time to kill all S. aureus (MRSA)” value is at most 2 h. Besides, the S. pneum. MIC in series [3] is 10 mg/L. This molecule gave a B. cerius MIC in series [4] of under 3 mg/L. In addition, in series [5] (1 μg/ml, 37° C.), the “rebound in bacterial viability” value was “rebound in bacterial viability” and the “time after which effectively no cfu can be detected” value amounted to 2 h. Moreover, in series [5] (1 μg/ml, room temperature), the surviving bacteria result is given as “viable bacteria can be detected throughout the entire time-course”. Further, in series [5] (37° C.), the “time to kill effectively all bacteria” value was “faster than an aliquot can be removed from the test culture”. The killing of bacteria entry in series [5] (room temperature) was “discernible numbers of surviving bacteria can be detected immediately”.
With `CC(C)C[C@H]1NC(=O)[C@H](Cc2c[nH]c3ccccc23)NC(=O)[C@@H](CCCCN)NC(=O)[C@H](CCCNC(=N)N)NC(=O)[C@@H](CCCNC(=N)N)NC(=O)[C@H](Cc2c[nH]c3ccccc23)NC(=O)[C@@H](CC(C)C)NC(=O)[C@H](Cc2c[nH]c3ccccc23)NC1=O` [SEQ ID NO:18, cyclo-(D-Arg-Arg-D-Lys-Trp-D-Leu-Trp-D-Leu-Trp)] (cyclo([dR]R[dK]W[dL]W[dL]W)), in series [1], the “PD50 E. faecium VREF infection” value is recorded as 7 mg/kg, the “PD50 VREF” value is 7, the “In Vivo VREF PD50” value is recorded as 7 mg/kg and the “protection of mice from VREF infection” value is given as “completely protect”. Further, in series [2] (37° C.), the “rebound of bacterial population” value is “rebounds by about eight hours” and the “time to kill effectively all bacteria” value is recorded as “within about one hour”. In addition, in series [2] (room temperature), the “rebound of bacterial population” value is reported as “no rebound is observed” and the “time to kill all S. aureus (MRSA)” value is at most 1 h. In series [3], this molecule had a S. pneum. MIC of 5 mg/L. Further, in series [4], the B. cerius MIC amounted to 5 mg/L. In addition, in series [6], the proteolytic stability result is “stable”. In series [5] (37° C.), the “time to kill effectively all bacteria” value is “within one hour”. The killing of bacteria result in series [5] (room temperature) was “within one hour”.
